Experimental data as given in US9440957B2, “Compounds and compositions for modulating EGFR Activity” (Novartis AG, priority 2012, dated 2016).
Like-named read-outs stand apart in the source and are kept apart here.

Experiments:
[1] = molecular target: HEKn (EGFR WT) (Homo sapiens, UniProt P00533); assay: EGFR target modulation in HEKn (EGFR-WT) cell line (phospho-EGFR Y1173 ELISA); type: cell-based; conditions: value outside parentheses
Method: EGFR Target Modulation in HEKn (EGFR-WT) Cell Line Tissue Culture. Human neonatal epithelial keratinocytes (Invitrogen #C-001-5C) were maintained in EpiLife media (Invitrogen #[…]) supplemented with growth factors (Invitrogen #S-001-5). Cells were harvested with 0.05% Trypsin/EDTA (Hyclone #SH30236.01) and quenched with 5% FBS/EpiLife media. […] The serial diluted compounds were transferred to the plate containing cells by using a 50 nl Pin Head device (Perkin Elmer) and the cells were placed back in the incubator for 3 hours. […] Phospho-EGFR (Y1173) ELISA. Solid white high-binding ELISA plates (Greiner #781074) were coated with 5 ug/ml anti-EGFR capture antibody (R&D Systems #AF231) overnight in 50 mM carbonate/bicarbonate pH 9.5 buffer. […] Wash steps were carried out with a Bio-Tek ELx405 SelectTM using 4 cycles of 100 ul TBS-T (20 mM Tris, 137 mM NaCl, 0.05% Tween-20) per well. […] Lysis was allowed to occur for 20 minutes on ice. A 25 ul aliquot was added to each well of the blocked ELISA plate and incubated overnight at 4° C. with gentle shaking. […] After washing, 1:2,000 anti-rabbit-HRP (Cell Signaling #7074) in 0.2% BSA/TBS-T was added and incubated for 1 hour at room temperature. Chemiluminescent detection was carried out with SuperSignal ELISA Pico substrate (ThermoScientific #37069). Signal was read on EnVision plate reader using built-in UltraLUM setting. Data Analysis. Control cells treated with EGF were set to 100% maximum response. […] With these parameters, the IC50's for each compound in each cell line was calculated using non-linear curve fitting analysis.

[2] = molecular target: T1, EGFR(L858R/T790M) (Homo sapiens, UniProt P00533, L858R/T790M); assay: EGFR biochemical assay (HTRF), IC50 determinations
T1 construct: purchased from Carna (GST-a.a. 669-1210)
Procedure, shortened: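 Two formats were run: compound preincubated at room temperature with enzyme and biotin-TK peptide before ATP starts the reaction, or no preincubation with enzyme added last. Reactions ran 60 min at room temperature and were stopped with EDTA. Phosphopeptide was read by HTRF (PT66K/SAXL, 1 h).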

[3] = molecular target: human EGFR L858R/T790M (NIH/3T3 cells) (Homo sapiens, UniProt P00533, L858R/T790M); assay: EGFR target modulation in engineered NIH/3T3 cell lines (phospho-EGFR Y1068 AlphaLISA), EGFR L858R/T790M; type: cell-based; conditions: engineered NIH/3T3 cells, read-out: NIH3T3 IC50 (μM) EGFR (L858R/T790M)
Procedure, shortened: (§1)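 Engineered NIH/3T3 cells expressing EGFR variants treated 3 h at 37 °C with 12-point 1:3 compound series (top stock 10 μM); only WT cells stimulated with 50 ng/ml EGF for 5 min before lysis. Phospho-Y1068 measured by AlphaLISA with total-EGFR antibody; IC50 from non-linear fitting.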

[4] = molecular target: human EGFR L858R (NIH/3T3 cells) (Homo sapiens, UniProt P00533, L858R); assay: EGFR target modulation in engineered NIH/3T3 cell lines (phospho-EGFR Y1068 AlphaLISA), EGFR L858R; type: cell-based; conditions: engineered NIH/3T3 cells, read-out: NIH3T3 IC50 (μM) EGFR (L858R)
Procedure, shortened: as §1

[5] = molecular target: H3255 (EGFR L858R) (Homo sapiens, UniProt P00533, L858R); assay: EGFR target modulation in H3255 cell line (phospho-EGFR Y1173 ELISA); type: cell-based
Method: (§2) EGFR Target Modulation in H1975, H3255 and HCC827 Cell Lines Tissue Culture. Cells were maintained in 10% FBS/RPMI supplemented with 100 μg/ml Penicillin/Streptomycin (Hyclone #SH30236.01). […] The cells were allowed to incubate overnight in a 37° C., 5% CO2 humidified tissue culture incubator. […] The serial diluted compounds were transferred to the plate containing cells by using a 50 nl Pin Head device (Perkin Elmer) and the cells were placed back in the incubator for 3 hours. Phospho-EGFR ([…]) Target Modulation Assay. The media was reduced to 20 ul using a Bio-Tek ELx 405 SelectTM plate washer. […] The plates were shaken at 4° C. for 20 minutes. An aliquot of 25 ul from each well was transferred to pEGFR(Y1173) ELISA plates for analysis. Phospho-EGFR ([…]) ELISA. Solid white high-binding ELISA plates (Greiner #781074) were coated with 5 ug/ml anti-EGFR capture antibody (R&D Systems #AF231) overnight in 50 mM carbonate/bicarbonate pH 9.5 buffer. Plates were blocked with 1% BSA (Sigma #A7030) in PBS for 1 hour at room temperature. Wash steps were carried out with a Bio-Tek ELx405 SelectTM using 4 cycles of 100 ul TBS-T (20 mM Tris, 137 mM NaCl, 0.05% Tween-20) per well. […] Lysis was allowed to occur for 20 minutes on ice. A 25 ul aliquot was added to each well of the blocked ELISA plate and incubated overnight at 4° C. with gentle shaking. […] After washing, 1:2,000 anti-rabbit-HRP (Cell Signaling #7074) in 0.2% BSA/TBS-T was added and incubated for 1 hour at room temperature. Chemiluminescent detection was carried out with SuperSignal ELISA Pico substrate (ThermoScientific #37069). Signal was read on EnVision plate reader using built-in UltraLUM setting. Data Analysis. Control cells treated with EGF were set to 100% maximum response. […] With these parameters, the IC50's for each compound in each cell line was calculated using non-linear curve fitting analysis.

[6] = molecular target: H1975 (EGFR L858/T790M) (Homo sapiens, UniProt P00533, L858R/T790M); assay: EGFR target modulation in H1975 cell line (phospho-EGFR Y1173 ELISA); type: cell-based
Method: as §2

[7] = molecular target: human EGFR WT (NIH/3T3 cells, EGF-induced) (Homo sapiens, UniProt P00533); assay: EGFR target modulation in engineered NIH/3T3 cell lines (phospho-EGFR Y1068 AlphaLISA), EGFR WT; type: cell-based; conditions: engineered NIH/3T3 cells, read-out: NIH3T3 IC50 (μM) EGFR (WT)
Procedure, shortened: as §1

[8] = EGFR (L858R/T790M) with 90 min pre-incubation, read-out: IC50 (μM) Column B
[9] = EGFR (L858R/T790M) with no pre-incubation, read-out: IC50 (μM) Column A

Chain of HEKn (EGFR WT) (P00533 25-1210): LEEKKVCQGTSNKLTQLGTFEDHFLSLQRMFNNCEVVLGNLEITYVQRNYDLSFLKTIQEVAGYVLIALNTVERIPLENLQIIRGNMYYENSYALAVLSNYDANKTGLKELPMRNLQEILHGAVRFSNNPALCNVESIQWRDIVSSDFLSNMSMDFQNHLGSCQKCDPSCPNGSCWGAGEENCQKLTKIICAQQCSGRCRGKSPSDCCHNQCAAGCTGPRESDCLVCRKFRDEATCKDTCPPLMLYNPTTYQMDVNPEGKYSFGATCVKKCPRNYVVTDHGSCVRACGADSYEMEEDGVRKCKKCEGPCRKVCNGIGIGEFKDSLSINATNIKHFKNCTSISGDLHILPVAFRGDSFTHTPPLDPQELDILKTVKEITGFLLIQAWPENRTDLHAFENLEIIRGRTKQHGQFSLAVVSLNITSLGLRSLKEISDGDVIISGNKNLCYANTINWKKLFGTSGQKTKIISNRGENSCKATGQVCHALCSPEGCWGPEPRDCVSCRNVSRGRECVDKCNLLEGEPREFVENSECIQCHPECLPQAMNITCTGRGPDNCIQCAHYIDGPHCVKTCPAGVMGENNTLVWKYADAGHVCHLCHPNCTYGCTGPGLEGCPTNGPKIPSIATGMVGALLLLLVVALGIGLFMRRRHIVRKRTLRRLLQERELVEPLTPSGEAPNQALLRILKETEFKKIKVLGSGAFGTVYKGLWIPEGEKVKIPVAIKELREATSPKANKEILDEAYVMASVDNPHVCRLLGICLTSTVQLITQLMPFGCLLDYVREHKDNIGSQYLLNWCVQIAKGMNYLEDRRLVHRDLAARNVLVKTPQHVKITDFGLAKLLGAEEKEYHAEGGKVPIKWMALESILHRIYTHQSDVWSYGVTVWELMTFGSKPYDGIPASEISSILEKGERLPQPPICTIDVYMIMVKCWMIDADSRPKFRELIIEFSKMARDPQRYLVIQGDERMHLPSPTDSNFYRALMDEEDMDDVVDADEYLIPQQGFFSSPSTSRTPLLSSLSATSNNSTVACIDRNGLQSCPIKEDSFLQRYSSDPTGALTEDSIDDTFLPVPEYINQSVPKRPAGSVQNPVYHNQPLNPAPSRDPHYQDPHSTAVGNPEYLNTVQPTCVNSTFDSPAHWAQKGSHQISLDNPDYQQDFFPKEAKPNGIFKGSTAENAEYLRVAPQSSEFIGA
Chain of human EGFR WT (NIH/3T3 cells, EGF-induced) (P00533 25-1210): as above
T1 sequence (P00533 669-1210 T790M/L858R): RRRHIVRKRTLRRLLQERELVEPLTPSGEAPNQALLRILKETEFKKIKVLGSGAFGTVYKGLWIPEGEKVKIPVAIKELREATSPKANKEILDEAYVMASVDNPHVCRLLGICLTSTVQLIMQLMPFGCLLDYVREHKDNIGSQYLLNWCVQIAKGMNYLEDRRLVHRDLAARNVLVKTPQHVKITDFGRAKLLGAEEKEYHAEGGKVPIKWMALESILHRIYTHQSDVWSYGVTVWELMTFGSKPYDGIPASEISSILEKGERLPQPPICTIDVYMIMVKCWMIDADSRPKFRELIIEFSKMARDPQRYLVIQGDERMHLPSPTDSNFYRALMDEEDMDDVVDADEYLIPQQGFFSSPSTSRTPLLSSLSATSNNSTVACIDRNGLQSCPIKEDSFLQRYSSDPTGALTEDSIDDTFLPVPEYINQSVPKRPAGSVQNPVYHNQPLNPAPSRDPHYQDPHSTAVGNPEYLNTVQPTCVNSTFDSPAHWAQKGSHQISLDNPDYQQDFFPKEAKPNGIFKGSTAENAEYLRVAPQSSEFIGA
Chain of H3255 (EGFR L858R) (P00533 25-1210 L858R): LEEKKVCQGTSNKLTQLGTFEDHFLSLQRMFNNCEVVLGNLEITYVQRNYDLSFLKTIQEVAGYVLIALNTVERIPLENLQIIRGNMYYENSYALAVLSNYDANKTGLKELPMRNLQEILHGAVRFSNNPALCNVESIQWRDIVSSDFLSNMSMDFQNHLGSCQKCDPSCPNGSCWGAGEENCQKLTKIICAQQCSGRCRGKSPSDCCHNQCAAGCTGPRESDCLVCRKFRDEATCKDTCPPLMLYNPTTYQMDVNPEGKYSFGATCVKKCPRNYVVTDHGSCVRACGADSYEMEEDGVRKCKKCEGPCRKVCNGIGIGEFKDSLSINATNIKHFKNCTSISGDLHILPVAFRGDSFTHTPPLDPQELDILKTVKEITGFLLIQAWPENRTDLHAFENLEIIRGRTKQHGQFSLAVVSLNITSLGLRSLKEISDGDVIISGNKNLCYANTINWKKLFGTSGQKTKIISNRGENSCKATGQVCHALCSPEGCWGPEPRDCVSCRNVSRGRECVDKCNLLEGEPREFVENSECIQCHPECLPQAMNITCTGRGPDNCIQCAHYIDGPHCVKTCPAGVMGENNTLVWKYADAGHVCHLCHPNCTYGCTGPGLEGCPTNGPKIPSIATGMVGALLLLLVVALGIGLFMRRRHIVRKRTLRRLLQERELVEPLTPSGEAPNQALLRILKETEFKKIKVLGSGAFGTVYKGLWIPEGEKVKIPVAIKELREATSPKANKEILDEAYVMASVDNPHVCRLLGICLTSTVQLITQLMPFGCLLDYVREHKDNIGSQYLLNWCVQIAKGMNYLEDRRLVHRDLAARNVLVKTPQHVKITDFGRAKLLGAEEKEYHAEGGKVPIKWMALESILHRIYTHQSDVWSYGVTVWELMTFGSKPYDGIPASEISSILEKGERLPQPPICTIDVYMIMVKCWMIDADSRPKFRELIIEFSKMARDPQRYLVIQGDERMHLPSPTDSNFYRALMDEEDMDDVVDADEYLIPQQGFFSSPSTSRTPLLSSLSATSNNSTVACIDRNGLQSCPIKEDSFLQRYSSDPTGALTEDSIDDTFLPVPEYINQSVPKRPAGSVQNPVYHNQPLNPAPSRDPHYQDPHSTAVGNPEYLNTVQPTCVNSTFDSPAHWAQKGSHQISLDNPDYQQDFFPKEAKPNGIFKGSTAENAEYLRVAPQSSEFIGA

Compound | IC50 [1] | IC50 [2, 8] | IC50 [2, 9] | IC50 [3] | IC50 [4] | IC50 [5] | IC50 [6] | IC50 [7]
Cc1cc(C(=O)Nc2nc3cccc(C)c3n2[C@@H]2CCCCN(C(=O)/C=C/CN(C)C)C2)ccn1 [Example 7, (R,E)-N-(1-(1-(4-(dimethylamino)but-2-enoyl)azepan-3-yl)-7-methyl-1H-benzo[d]imidazol-2-yl)-2-methylisonicotinamide] | 74 nM | < 0.001 µM | 0.002 µM | 0.001 µM | 0.001 µM | 2 nM | 1 nM | 0.019 µM
C=CC(=O)N1CCCC[C@@H](n2c(NC(=O)c3ccnnc3)nc3ccc(OC)c(Cl)c32)C1 [Example 9, (R)—N-(1-(1-acryloylazepan-3-yl)-7-chloro-6-methoxy-1H-benzo[d]imidazol-2-yl)pyridazine-4-carboxamide] | 152 nM | < 0.001 µM | 0.006 µM | 0.002 µM | 0.008 µM | 8 nM | 3 nM | 0.101 µM
COc1ccc2nc(NC(=O)c3ccnnc3)n([C@@H]3CCCCN(C(=O)/C=C/CN(C)C)C3)c2c1Cl [Example 17-2] | 2340 nM | 0.002 µM | 0.018 µM | 0.015 µM | 0.018 µM | 170 nM | 76 nM | 0.38 µM
Cc1cc(C(=O)Nc2nc3cccc(C)c3n2[C@@H]2CCCN(C(=O)/C=C/CN(C)C)C2)ccn1 [Example 17-4] | > 10000 nM | 0.006 µM | 0.135 µM | 0.058 µM | 0.062 µM | 156 nM | 105 nM | 1.4 µM
C=CC(=O)N1CCCC[C@@H](n2c(NC(=O)c3ccnnc3)nc3cccc(Cl)c32)C1 [Example 17-15] | 259 nM | < 0.001 µM | 0.012 µM | 0.006 µM | 0.017 µM | 22 nM | 6 nM | 0.204 µM
CN(C)C/C=C/C(=O)N1CCCC[C@@H](n2c(NC(=O)c3ccnnc3)nc3cccc(Cl)c32)C1 [Example 17-16] | 295 nM | < 0.001 µM | 0.007 µM | 0.017 µM | 0.015 µM | 28 nM | 10 nM | 0.282 µM
C=CC(=O)N1CCCC[C@@H](n2c(NC(=O)c3ccnc(C)c3)nc3cccc(Cl)c32)C1 [Example 17-17] | 176 nM | < 0.001 µM | 0.004 µM | 0.005 µM | 0.008 µM | 8 nM | 3 nM | 0.211 µM
Cc1cccc2nc(NC(=O)c3ccnnc3)n(C3CCCCN(C(=O)/C=C/CN(C)C)C3)c12 (stereo not drawn) [Example 17-24] | 225 nM | < 0.001 µM | 0.006 µM | 0.006 µM | 0.005 µM | 9 nM | 7 nM | 0.094 µM
Cc1cccc2nc(NC(=O)c3cccc(C(F)(F)F)c3)n(C3CCCCN(C(=O)/C=C/CN(C)C)C3)c12 (stereo not drawn) [Example 17-25] | 251 nM | < 0.001 µM | < 0.002 µM | < 0.001 µM | 0.002 µM | 26 nM | 2 nM | 0.057 µM
Cc1cccc2nc(NC(=O)c3ccc(F)cc3)n(C3CCCCN(C(=O)/C=C/CN(C)C)C3)c12 (stereo not drawn) [Example 17-26] | 190 nM | < 0.001 µM | 0.005 µM | 0.005 µM | 0.003 µM | 15 nM | 5 nM | 0.139 µM
Cc1cccc2nc(NC(=O)c3cccc(F)c3F)n(C3CCCCN(C(=O)/C=C/CN(C)C)C3)c12 (stereo not drawn) [Example 17-27] | 1000 nM | 0.002 µM | 0.021 µM | 0.005 µM | 0.012 µM | 88 nM | 12 nM | 0.67 µM
Cc1cccc2nc(NC(=O)c3ccc(F)cc3F)n(C3CCCCN(C(=O)/C=C/CN(C)C)C3)c12 (stereo not drawn) [Example 17-28] | 370 nM | < 0.001 µM | 0.014 µM | 0.01 µM | 0.004 µM | 81 nM | 24 nM | 0.283 µM
Cc1cccc2nc(NC(=O)c3cc(F)ccc3F)n(C3CCCCN(C(=O)/C=C/CN(C)C)C3)c12 (stereo not drawn) [Example 17-29] | 2610 nM | < 0.001 µM | 0.02 µM | 0.017 µM | 0.028 µM | 290 nM | 93 nM | 0.82 µM
Cc1cccc2nc(NC(=O)c3ccc(F)c(F)c3)n(C3CCCCN(C(=O)/C=C/CN(C)C)C3)c12 (stereo not drawn) [Example 17-30] | 313 nM | < 0.001 µM | 0.005 µM | 0.004 µM | 0.003 µM | 37 nM | 10 nM | 0.167 µM
Cc1cccc2nc(NC(=O)c3cc(F)c(F)c(F)c3)n(C3CCCCN(C(=O)/C=C/CN(C)C)C3)c12 (stereo not drawn) [Example 17-33] | 259 nM | < 0.001 µM | 0.008 µM | 0.005 µM | 0.002 µM | 65 nM | 5 nM | 0.224 µM
Cc1cccc2nc(NC(=O)c3ccncc3)n(C3CCCCN(C(=O)/C=C/CN(C)C)C3)c12 (stereo not drawn) [Example 17-35] | 285 nM | < 0.001 µM | 0.006 µM | 0.005 µM | 0.005 µM | 5 nM | 4 nM | 0.14 µM
Cc1cccc2nc(NC(=O)c3ccncn3)n(C3CCCCN(C(=O)/C=C/CN(C)C)C3)c12 (stereo not drawn) [Example 17-37] | > 10000 nM | 0.005 µM | 0.062 µM | 0.042 µM | 0.032 µM | 135 nM | 128 nM | 1.65 µM
Cc1cccc2nc(NC(=O)c3ccccc3)n(C3CCCCN(C(=O)/C=C/CN(C)C)C3)c12 (stereo not drawn) [Example 17-40] | 760 nM | < 0.001 µM | 0.007 µM | 0.008 µM | 0.017 µM | 130 nM | 7 nM | 0.49 µM
